Holding throughout (assay type): biochemical
For experiment [1], the target named is T1, hMMP 9 (Homo sapiens, UniProt P14780).
T1 construct: purchased R&D systems
The experiment is described as follows: Residual enzyme activity of other metalloproteases. The settings on record: read-out: Residual enzyme activity MMP9; for remaining activity at 10 µM: 10 μM inhibitor; for remaining activity at 200 µM: 200 μM inhibitor. An outline of the steps: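 Fluorogenic cleavage of internally quenched peptides; enzyme 5e-8 to 2e-10 M final, substrate 0.15–80 μM, inhibitor in buffer with 1% DMSO. MMPs activated beforehand with APMA.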

For experiment [2], the target named is T2, hADAM 17 (Homo sapiens, UniProt P78536).
T2 construct: purchased R&D systems
Kind of experiment: Residual enzyme activity of other metalloproteases. The settings on record: read-out: Residual enzyme activity ADAM17; for remaining activity at 10 µM: 10 μM inhibitor; for remaining activity at 200 µM: 200 μM inhibitor. The method in brief: (§1)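 Activity followed by cleavage of internally quenched peptide substrates (0.15 to 80 μM, 0.5% DMSO) with enzyme at 5e-8 M to 2e-10 M final and inhibitor in buffer with 1% DMSO. ADAM activity was run in a 60 μl format.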

Experiment [3] deals with T3, hADAM 10 (Homo sapiens, UniProt O14672).
T3 construct: purchased R&D systems
T3 sequence (O14672 214-748): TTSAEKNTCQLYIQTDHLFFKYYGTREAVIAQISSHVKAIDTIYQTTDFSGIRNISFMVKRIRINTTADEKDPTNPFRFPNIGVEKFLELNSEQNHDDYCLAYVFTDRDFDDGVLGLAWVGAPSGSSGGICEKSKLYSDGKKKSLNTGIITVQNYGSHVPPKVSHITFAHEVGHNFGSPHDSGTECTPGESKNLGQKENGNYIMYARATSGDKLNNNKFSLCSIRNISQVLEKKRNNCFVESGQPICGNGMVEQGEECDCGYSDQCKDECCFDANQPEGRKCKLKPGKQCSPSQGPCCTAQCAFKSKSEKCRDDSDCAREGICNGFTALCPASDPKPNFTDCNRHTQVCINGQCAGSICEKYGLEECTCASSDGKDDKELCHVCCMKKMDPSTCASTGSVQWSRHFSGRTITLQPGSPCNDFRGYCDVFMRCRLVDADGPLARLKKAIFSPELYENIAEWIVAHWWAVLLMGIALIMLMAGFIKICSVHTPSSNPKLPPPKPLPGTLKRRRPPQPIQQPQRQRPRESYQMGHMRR
Kind of experiment: Residual enzyme activity of other metalloproteases. The settings on record: read-out: Residual enzyme activity ADAM10; for remaining activity at 10 µM: 10 μM inhibitor; for remaining activity at 200 µM: 200 μM inhibitor. The method in brief:
as §1

The target of experiment [4] is T4, hMMP 2 (Homo sapiens, UniProt P08253).
T4 construct: purchased Abnova
T4 sequence (P08253 110-660): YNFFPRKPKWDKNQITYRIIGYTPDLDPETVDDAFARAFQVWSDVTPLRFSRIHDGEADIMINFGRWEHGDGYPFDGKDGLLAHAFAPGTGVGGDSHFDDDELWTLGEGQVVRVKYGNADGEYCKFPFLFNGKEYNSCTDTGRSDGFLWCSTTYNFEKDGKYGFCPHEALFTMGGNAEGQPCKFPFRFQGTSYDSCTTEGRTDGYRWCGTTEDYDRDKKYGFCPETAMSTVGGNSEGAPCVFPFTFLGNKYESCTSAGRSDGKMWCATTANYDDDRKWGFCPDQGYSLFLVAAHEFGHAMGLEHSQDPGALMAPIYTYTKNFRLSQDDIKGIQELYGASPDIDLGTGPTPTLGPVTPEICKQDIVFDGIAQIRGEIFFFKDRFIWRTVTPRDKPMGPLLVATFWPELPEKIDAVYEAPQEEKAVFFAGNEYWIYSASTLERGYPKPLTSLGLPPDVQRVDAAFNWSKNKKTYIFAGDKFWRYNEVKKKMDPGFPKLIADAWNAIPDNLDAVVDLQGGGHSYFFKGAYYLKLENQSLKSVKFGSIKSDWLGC
Kind of experiment: Residual enzyme activity of other metalloproteases. The settings on record: read-out: Residual enzyme activity MMP2; for remaining activity at 10 µM: 10 μM inhibitor; for remaining activity at 200 µM: 200 μM inhibitor. As for the experimental part:
(§2) A typical assay of 250 μl total volume measured in black 96 well plates consisted of 100 μl buffer, 50 μl enzyme at a final concentration of 5e-8 M to 2e-10 M, 50 μl substrate (0.15 to 80 μM, in buffer, 0.5% DMSO) and 50 μl inhibitor solution (in buffer, 1% DMSO). In case of 125 μl assay volume (black 96 half area well plates) all volumes were cut in half. Enzymatic activity of ADAMs was measured in 384 well plates with 60 μl total assay volume consisting of 20 μl inhibitor, 20 μl buffer, 10 μl enzyme and 10 μl substrate.
(§3) MMPs were activated prior to measurement by APMA (p-aminophenylmercuric acetate) treatment according to manufacturer's instructions (R&D systems).

Experiment [5] has as its target T5, hMMP 13 (Homo sapiens, UniProt P45452).
T5 construct: purchased R&D systems
Kind of experiment: Residual enzyme activity of other metalloproteases. The settings on record: read-out: Residual enzyme activity MMP13; for remaining activity at 10 µM: 10 μM inhibitor; for remaining activity at 200 µM: 200 μM inhibitor. The procedure: as §2, §3

The target of experiment [6] is T6, hMeprin β (Homo sapiens, UniProt Q16820).
T6 sequence (Q16820 62-701): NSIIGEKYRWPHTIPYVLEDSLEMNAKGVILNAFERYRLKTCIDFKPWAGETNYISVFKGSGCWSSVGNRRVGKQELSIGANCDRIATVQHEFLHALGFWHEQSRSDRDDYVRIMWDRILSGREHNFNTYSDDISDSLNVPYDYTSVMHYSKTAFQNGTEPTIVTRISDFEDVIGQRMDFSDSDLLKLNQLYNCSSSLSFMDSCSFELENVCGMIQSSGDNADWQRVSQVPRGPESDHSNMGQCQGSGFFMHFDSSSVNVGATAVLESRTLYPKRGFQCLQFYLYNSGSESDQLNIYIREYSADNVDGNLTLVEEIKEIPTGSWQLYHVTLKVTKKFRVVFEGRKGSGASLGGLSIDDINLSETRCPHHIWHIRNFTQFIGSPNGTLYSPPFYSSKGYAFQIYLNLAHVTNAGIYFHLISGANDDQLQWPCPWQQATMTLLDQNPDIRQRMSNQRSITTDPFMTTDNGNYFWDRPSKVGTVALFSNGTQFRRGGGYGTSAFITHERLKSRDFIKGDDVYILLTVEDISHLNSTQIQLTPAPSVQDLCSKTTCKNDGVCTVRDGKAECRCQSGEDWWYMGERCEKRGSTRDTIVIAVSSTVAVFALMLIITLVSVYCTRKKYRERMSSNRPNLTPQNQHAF
Kind of experiment: Enzymatic assay, quenched peptide substrate cleavage, method B. The settings on record: geometric mean (geometric SD factor in parentheses); for IC50: read-out: Meprin beta IC50; for Ki: Morrison's equation, read-out: Meprin beta Ki(app). The method in brief:
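Cleavage of internally quenched peptides was read at 340/420 nm and 30° C., with enzyme at 5e-8 to 2e-10 M and substrate at 0.15–80 μM. Inhibitor solutions contained 1% DMSO and substrate 0.5% DMSO. Method B gave Ki(app) values via Morrison's equation, with kinetics measured in at least duplicate on separate days.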

T1 sequence (P14780 107-707 limits assumed): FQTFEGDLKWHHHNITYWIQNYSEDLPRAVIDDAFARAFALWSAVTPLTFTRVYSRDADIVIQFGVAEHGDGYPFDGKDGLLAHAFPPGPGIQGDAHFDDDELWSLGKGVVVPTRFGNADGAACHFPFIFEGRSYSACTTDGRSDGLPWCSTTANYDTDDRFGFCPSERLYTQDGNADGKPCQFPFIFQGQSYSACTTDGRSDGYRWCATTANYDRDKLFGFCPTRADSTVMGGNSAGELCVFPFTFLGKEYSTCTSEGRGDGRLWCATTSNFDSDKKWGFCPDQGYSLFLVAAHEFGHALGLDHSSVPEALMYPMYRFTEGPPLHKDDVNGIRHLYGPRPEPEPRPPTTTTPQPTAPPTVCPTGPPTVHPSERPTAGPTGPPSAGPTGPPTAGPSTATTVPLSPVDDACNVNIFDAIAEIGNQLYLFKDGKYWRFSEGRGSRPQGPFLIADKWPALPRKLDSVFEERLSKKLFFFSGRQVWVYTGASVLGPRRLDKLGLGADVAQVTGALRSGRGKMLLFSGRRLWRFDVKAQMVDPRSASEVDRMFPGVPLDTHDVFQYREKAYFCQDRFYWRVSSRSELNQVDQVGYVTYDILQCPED
T2 sequence (P78536 215-824): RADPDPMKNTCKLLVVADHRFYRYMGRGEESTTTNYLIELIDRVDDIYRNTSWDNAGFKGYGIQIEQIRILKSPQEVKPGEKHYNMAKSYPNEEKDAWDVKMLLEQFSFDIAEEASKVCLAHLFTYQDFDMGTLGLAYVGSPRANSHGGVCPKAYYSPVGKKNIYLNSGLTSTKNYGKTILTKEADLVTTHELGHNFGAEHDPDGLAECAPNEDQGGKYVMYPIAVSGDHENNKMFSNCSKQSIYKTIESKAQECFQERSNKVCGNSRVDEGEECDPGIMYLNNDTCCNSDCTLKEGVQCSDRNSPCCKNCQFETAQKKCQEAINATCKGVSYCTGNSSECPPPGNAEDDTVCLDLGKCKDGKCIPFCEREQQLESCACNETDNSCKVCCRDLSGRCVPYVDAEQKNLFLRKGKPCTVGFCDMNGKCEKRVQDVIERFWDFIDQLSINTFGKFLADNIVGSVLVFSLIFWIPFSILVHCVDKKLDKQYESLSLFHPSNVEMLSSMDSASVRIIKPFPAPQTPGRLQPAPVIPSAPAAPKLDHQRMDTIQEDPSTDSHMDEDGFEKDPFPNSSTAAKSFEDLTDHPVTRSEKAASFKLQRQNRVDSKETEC

Consider `O=C(Cc1c(-c2ccccc2)n[nH]c1-c1ccccc1)NO` [Example 1, 2-(3,5-Diphenyl-1H-pyrazol-4-yl)ethanehydroxamic acid], for which the remaining activity at 10 µM in experiment [1] came out at 81%; in experiment [2] it was 61%; in experiment [3], 73%; in experiment [4], 104%; in experiment [5] it was 75%. The remaining activity at 200 µM in experiment [1] worked out at 27%; in experiment [2] it was 7%; in experiment [3], 23%; in experiment [4], 61%; in experiment [5], 67%. The IC50 (commonly the concentration that inhibits the measured activity by half) in experiment [6] came to 119 nM.
In the case of `COc1ccc(-c2n[nH]c(-c3ccccc3)c2CC(=O)NO)cc1OC` [Example 49, 2-[3-(3,4-Dimethoxyphenyl)-5-phenyl-1H-pyrazol-4-yl]ethanehydroxamic acid], the remaining activity at 10 µM in experiment [1] worked out at 90%; in experiment [2], 65%; in experiment [3] it was 87%; in experiment [4], 83%; in experiment [5], 101%. In addition, the remaining activity at 200 µM in experiment [1] was 44%; in experiment [2], 6%; in experiment [3], 13%; in experiment [4] it was 26%; in experiment [5], 18%. Further, the Ki in experiment [6] came out at 83 nM. For the same molecule, in experiment [6], the IC50 is 84 nM.
On to `O=C(CCc1c(-c2ccccc2)n[nH]c1-c1ccccc1)NO` [Example 3, 3-(3,5-Diphenyl-1H-pyrazol-4-yl)propanehydroxamic acid], for which the remaining activity at 10 µM in experiment [1] came out at 93%; in experiment [2], 76%; in experiment [3], 66%; in experiment [4], 97%; in experiment [5], 93%. Also, the remaining activity at 200 µM in experiment [1] was 65%; in experiment [2] it was 27%; in experiment [3], 12%; in experiment [4] it was 77%; in experiment [5] it was 68%. For the same molecule, the Ki in experiment [6] amounted to 9350 nM. Moreover, in experiment [6], the IC50 was found to be 9660 nM.

(Values after patent publication US20250388544A1, “HETEROAROMATIC INHIBITORS OF ASTACIN PROTEINASES” (VIVORYON THERAPEUTICS N.V., priority 2019, published 2025).)
